Columns and labels:
[1] = system: Human Patient-Derived Xenograft (PDX) Angiosarcoma; assay: E9 monotherapy efficacy in Human Patient-Derived Xenograft (PDX) Angiosarcoma model; type: in vivo, immuno-deficient NOD scid gamma (NOG) mice; settings: BID × 23, termination at day 23
Excerpt: This Angiosarcoma PDX model was used for preclinical evaluation of E9 in Angiosarcoma due to the retention of tumor heterogeneity and biological characteristics. Additionally, due to the rare indication, no murine syngeneic or human xenograft models are available.
Briefly, immuno-deficient NOD scid gamma (NOG) mice, were housed in a controlled environment conducive to tumor growth. Human PDX tumor samples, obtained from a patient with Angiosarcoma (Epitheloid AS […]), were implanted subcutaneously into the mice. Tumor growth was monitored using non-invasive caliper method and was calculated by the following formula: volume = (width)2 × (length)/2. Animals were randomized into treatment groups at a tumor volume (TV) of ~160mm3 (Table 1). Treatment started after randomization twice daily until termination at day 23 when Vehicle animals reached termination criteria due to TV. Table 1: Example treatment groups.

[2] = system: secondary radiation-induced cutaneous angiosarcoma; assay: Treatment of a secondary angiosarcoma in a patient (dose escalation study); type: in vivo, human
Procedure: Clinical responder patient suffered from a secondary radiation-induced cutaneous angiosarcoma. The patient, who previously received radiotherapy in context of a treatment of breast cancer, developed secondary angiosarcoma. The angiosarcoma was treated with chemotherapy including paclitaxel, doxorubicin and cyclophosphamide the patient developed treatment resistance to the chemotherapy. In the following the patient received E9 in context of a dose excalation study in which E9 was administered orally every 12h (i.e. twice daily) for 28 days per treatment cycle. E9 daily doses were escalated from 10mg to 30mg and finally 60mg E9 during the then following continuous treatment.

Cc1nc(Nc2ncc(C(=O)Nc3c(CF)csc3Cl)s2)cc(N2CCN(C)CC2)n1 [E9, N-(2-chloro-4-(fluoromethyl)thiophen-3-yl)-2-((2-methyl-6-(4-methylpiperazin-1-yl)pyrimidin-4-yl)amino)thiazole-5-carboxamide]
tumor growth inhibition (TGI) ([1]; 25mg/kg E9, p.o.): 55% | tumor size at termination compared to treatment start ([1]; 50 mg/kg E9, p.o.): tumor regression | duration of maintained near-complete response ([2]; further treatment with 60mg daily E9): over 10 months | tolerability ([2]; orally every 12h, 28 days per cycle, daily doses escalated from 10mg to 30mg and finally 60mg): well tolerated | clinical response (reduction of cutaneous lesions) ([2]; patient resistant to paclitaxel, doxorubicin and cyclophosphamide, E9 orally twice daily): near-complete response

— EP4643861A1, “A HALOGENATED-HETEROARYL KINASE INHBITOR FOR TREATING SOFT TISSUE SARCOMA AND VASCULAR TUMORS” (iOmx Therapeutics AG, priority 2024, dated 2025)
